Species on record: Rattus norvegicus
Experiment: DrugMatrix - Regimen: Daily Repeat
Type: toxicity, organism-based, Sprague-Dawley
Design: regimen Daily Repeat, gender Male, age 6-8 weeks
Conditions: in vivo, po, route oral GAVAGE, vehicle .5 % CMC; for ABSOLUTE BASOPHIL / ABSOLUTE EOSINOPHIL / ABSOLUTE LYMPHOCYTE / ABSOLUTE MONOCYTE / ABSOLUTE SEGMENTED NEUTROPHIL / BASOPHIL / EOSINOPHIL / ERYTHROCYTE COUNT / HEMATOCRIT / HEMOGLOBIN / LEUKOCYTE COUNT / LYMPHOCYTE / MEAN CORPUSCULAR HEMOGLOBIN / MEAN CORPUSCULAR HEMOGLOBIN CONCENTRATION / MEAN CORPUSCULAR VOLUME / MONOCYTE / NEUTROPHIL / NUCLEATED RED BLOOD CELLS / PLATELET COUNT: tissue Blood; for ALANINE AMINOTRANSFERASE / ALBUMIN / ALKALINE PHOSPHATASE / ASPARTATE AMINOTRANSFERASE / BLOOD UREA NITROGEN / CARBON DIOXIDE / CHLORIDE / CHOLESTEROL / CREATINE PHOSPHOKINASE / CREATININE / GLUCOSE / LACTATE DEHYDROGENASE / LIPASE / PHOSPHORUS / POTASSIUM / SODIUM / TOTAL BILIRUBIN / TOTAL PROTEIN / URIC ACID: tissue Plasma
[1] = 0 mg/kg, 72 h, dose level Control, time 3 day
[2] = 0 mg/kg, 120 h, dose level Control, time 5 day
[3] = 50 mg/kg, 72 h, dose level Low, time 3 day

CC1(C)[C@H]2CC[C@]1(C)C(=O)C2 [(-)-CAMPHOR]
ABSOLUTE BASOPHIL [1]: 0 CELLS/uL | ABSOLUTE EOSINOPHIL [1]: 222.83 CELLS/uL | ABSOLUTE LYMPHOCYTE [1]: 14453 CELLS/uL | ABSOLUTE MONOCYTE [1]: 0 CELLS/uL | ABSOLUTE SEGMENTED NEUTROPHIL [1]: 1490.83 CELLS/uL | BASOPHIL [1]: 0% | EOSINOPHIL [1]: 1.33% | ERYTHROCYTE COUNT [1]: 5.76 x10E6/uL | HEMATOCRIT [1]: 36.52% | HEMOGLOBIN [1]: 13.45 G/DL | LEUKOCYTE COUNT [1]: 16.17 x10E3/uL | LYMPHOCYTE [1]: 89.33% | MEAN CORPUSCULAR HEMOGLOBIN [1]: 23.37 pg | MEAN CORPUSCULAR HEMOGLOBIN CONCENTRATION [1]: 36.85 G/DL | MEAN CORPUSCULAR VOLUME [1]: 63.47 fL | MONOCYTE [1]: 0% | NEUTROPHIL [1]: 9.33% | NUCLEATED RED BLOOD CELLS [1]: 0 /100WBC | PLATELET COUNT [1]: 1239.5 x10E3/uL | ALANINE AMINOTRANSFERASE [1]: 43.83 u/L | ALBUMIN [1]: 4.27 G/DL | ALKALINE PHOSPHATASE [1]: 398.83 u/L | ASPARTATE AMINOTRANSFERASE [1]: 81.17 u/L | BLOOD UREA NITROGEN [1]: 17.67 mg/dL | CARBON DIOXIDE [1]: 27.5 mmol/L | CHLORIDE [1]: 99.17 MEQ/L | CHOLESTEROL [1]: 74 mg/dL | CREATINE PHOSPHOKINASE [1]: 331.5 u/L | CREATININE [1]: 0.2 mg/dL | GLUCOSE [1]: 171.33 mg/dL | LACTATE DEHYDROGENASE [1]: 241.67 u/L | LIPASE [1]: 9.5 u/L | PHOSPHORUS [1]: 12.25 mg/dL | POTASSIUM [1]: 6.33 MEQ/L | SODIUM [1]: 141.28 MEQ/L | TOTAL BILIRUBIN [1]: 0.15 mg/dL | TOTAL PROTEIN [1]: 5.98 G/DL | URIC ACID [1]: 1.63 mg/dL | ABSOLUTE BASOPHIL [2]: 0 CELLS/uL | ABSOLUTE EOSINOPHIL [2]: 148.67 CELLS/uL | ABSOLUTE LYMPHOCYTE [2]: 16020.5 CELLS/uL | ABSOLUTE MONOCYTE [2]: 29.17 CELLS/uL | ABSOLUTE SEGMENTED NEUTROPHIL [2]: 1468.33 CELLS/uL | BASOPHIL [2]: 0% | EOSINOPHIL [2]: 1% | ERYTHROCYTE COUNT [2]: 5.78 x10E6/uL | HEMATOCRIT [2]: 35.77% | HEMOGLOBIN [2]: 13.4 G/DL | LEUKOCYTE COUNT [2]: 17.67 x10E3/uL | LYMPHOCYTE [2]: 90.5% | MEAN CORPUSCULAR HEMOGLOBIN [2]: 23.22 pg | MEAN CORPUSCULAR HEMOGLOBIN CONCENTRATION [2]: 37.47 G/DL | MEAN CORPUSCULAR VOLUME [2]: 61.92 fL | MONOCYTE [2]: 0.17% | NEUTROPHIL [2]: 8.33% | NUCLEATED RED BLOOD CELLS [2]: 0.17 /100WBC | PLATELET COUNT [2]: 1255.5 x10E3/uL | ALANINE AMINOTRANSFERASE [2]: 46.5 u/L | ALBUMIN [2]: 4.38 G/DL | ALKALINE PHOSPHATASE [2]: 336 u/L | ASPARTATE AMINOTRANSFERASE [2]: 76.5 u/L | BLOOD UREA NITROGEN [2]: 20 mg/dL | CARBON DIOXIDE [2]: 27.5 mmol/L | CHLORIDE [2]: 101 MEQ/L | CHOLESTEROL [2]: 71.33 mg/dL | CREATINE PHOSPHOKINASE [2]: 231.83 u/L | CREATININE [2]: 0.37 mg/dL | GLUCOSE [2]: 168.83 mg/dL | LACTATE DEHYDROGENASE [2]: 174 u/L | LIPASE [2]: 8.67 u/L | PHOSPHORUS [2]: 11.48 mg/dL | POTASSIUM [2]: 6.82 MEQ/L | SODIUM [2]: 143.8 MEQ/L | TOTAL BILIRUBIN [2]: 0.2 mg/dL | TOTAL PROTEIN [2]: 5.98 G/DL | URIC ACID [2]: 1.83 mg/dL | ABSOLUTE BASOPHIL [3]: 0 CELLS/uL | ABSOLUTE EOSINOPHIL [3]: 203.67 CELLS/uL | ABSOLUTE LYMPHOCYTE [3]: 12113.67 CELLS/uL | ABSOLUTE MONOCYTE [3]: 0 CELLS/uL | ABSOLUTE SEGMENTED NEUTROPHIL [3]: 916 CELLS/uL | BASOPHIL [3]: 0% | EOSINOPHIL [3]: 1.33% | ERYTHROCYTE COUNT [3]: 5.4 x10E6/uL | HEMATOCRIT [3]: 33.83% | HEMOGLOBIN [3]: 12.8 G/DL | LEUKOCYTE COUNT [3]: 13.23 x10E3/uL | LYMPHOCYTE [3]: 91.33% | MEAN CORPUSCULAR HEMOGLOBIN [3]: 23.7 pg | MEAN CORPUSCULAR HEMOGLOBIN CONCENTRATION [3]: 37.87 G/DL | MEAN CORPUSCULAR VOLUME [3]: 62.67 fL | MONOCYTE [3]: 0% | NEUTROPHIL [3]: 7.33% | NUCLEATED RED BLOOD CELLS [3]: 0 /100WBC | PLATELET COUNT [3]: 1197.67 x10E3/uL | ALANINE AMINOTRANSFERASE [3]: 45.67 u/L | ALBUMIN [3]: 4.13 G/DL | ALKALINE PHOSPHATASE [3]: 348.67 u/L | ASPARTATE AMINOTRANSFERASE [3]: 71.33 u/L | BLOOD UREA NITROGEN [3]: 13.33 mg/dL | CARBON DIOXIDE [3]: 28.67 mmol/L | CHLORIDE [3]: 99.67 MEQ/L | CHOLESTEROL [3]: 58 mg/dL | CREATINE PHOSPHOKINASE [3]: 220.33 u/L | CREATININE [3]: 0.19 mg/dL | GLUCOSE [3]: 174.67 mg/dL | LACTATE DEHYDROGENASE [3]: 227.67 u/L | LIPASE [3]: 8 u/L | PHOSPHORUS [3]: 12.33 mg/dL | POTASSIUM [3]: 6.44 MEQ/L | SODIUM [3]: 143.07 MEQ/L | TOTAL BILIRUBIN [3]: 0.23 mg/dL | TOTAL PROTEIN [3]: 5.67 G/DL | URIC ACID [3]: 1.7 mg/dL
